# Test system: Helicobacter pylori
# Assay: H. pylori eradication by 14C UBT test (Example 2)
# Type: in vivo
# Conditions: BID × 14 day; for UBT results Negative / UBT results Positive: treatment group A: Compound I capsule 400 mg + rabeprazole sodium 20 mg + amoxicillin 1 g
# Method: In this example, 80 patients that are positive for Helicobacter pylori infection were admitted to the trial. The 80 patients were randomly allocated to 5 groups at a ratio of 2:2:1:1:2, including 4 treatment groups and 1 control group, and the dosage regimen is shown in Table 4.
# Patients were administered with the combination therapy daily according to the dosing regimen of the respective group from day 1 to day 14, and the last dose was administered in the morning of day 15. Pharmacokinetic blood samples were collected at the scheduled time point during the trial and patiented to a safety tolerance assessment and ^14C UBT test. All patients left the hospital after completing the safety tolerance assessment and PK blood collection on the 17th day (day 17), and returned to the research institution for follow-up visits from the 44th to 50th day (day 44-day 50). Follow-up of adverse events and laboratory abnormalities continued until the patients completely recovered or returned to baseline levels or stable states. Safety tolerance assessment, and ^14C UBT tests were performed to assess H. pylori eradication effects.
# The administration regimen was as follows: • Group A, Group B and Control Group: • Twice per day, the combination therapy was administered orally within 30 mins after breakfast and dinner, respectively, and the combination therapy was administered for 14 days consecutively. On day 15, the last administration was provided within 30 mins after breakfast. Each patient was administered for 29 times in total. • Group C and Group D: • Three times per day, and two administrations were separated by about 8 hours.
# Patients were examined with ^14C UBT test during the screening period (D-14˜D-2), baseline period (D-1), day 8 (D8), day 16 (D16) and days 44˜50 (D44˜D50). The test was done fasting before breakfast to determine the effects of H. pylori eradication in each group.
# • Full Analysis Set (FAS): refers to all randomized patients who have been administered with the combination therapy of the present disclosure at least once; • Modified Intentionality Analysis Set (mITT): refers to all randomized patients who underwent a ^14C UBT test on days 28 to 34 after the last administration; • Protocol-compliant Set (PP): refers to patients who have not experienced major protocol violations: randomized and treated with more than 80% (including 80%) of the total amount of the drug expected to be used in the investigation, and who were tested for ^14C UBT on days 28 to 34 after the last administration; • Safety Analysis Set (SS): refers to the patients who have entered the trial and have been administered the combination therapy of the present disclosure at least once; • Pharmacokinetic Concentration Analysis Dataset (PKCS): refers to all enrolled patients who have been administered with the combination therapy of the present disclosure and had at least one PK concentration observation; • Pharmacokinetic Parameter Analysis Dataset (PKPS): Refers to all enrolled patients who have been administered with the combination therapy of the present disclosure and had at least one PK parameter observation data point. Demographic Analysis: • Demographic analysis was based on Full Analysis Set (FAS). Descriptive statistical analysis of all demographics (age, sex, weight, height, BMI, ethnicity, etc.) and baseline characteristics, based on the measurement of the last valid data before the administration of the combination therapy of the present disclosure. Evaluation of the Eradication Effect of Helicobacter pylori: • The eradication effect analysis was performed with the Full Analysis Set (FAS), based on the results of four ^14C UBT tests (negative or positive) in group A, group B, group C, and control groups at baseline, on day 8, day 16, and follow-up days 44 to 50, and three ^14C UBT test results (negative or positive) in group D at baseline, on day 8, and follow-up days 37 to 43. […]
# [1] = Day 8 after administration, FAS N = 20
# [2] = Day 8 after administration, mITT N = 19
# [3] = Day 16 after administration, FAS N = 20
# [4] = Day 16 after administration, mITT N = 19
# [5] = Follow up period (Day 44~Day 50), FAS N = 20
# [6] = Follow up period (Day 44~Day 50), mITT N = 19
compound,measurement,setting,value
"CO[C@H]1/C=C/O[C@@]2(C)Oc3c(C)c(O)c4c(c3C2=O)C2=NC3(CCN(CCn5c([N+](=O)[O-])cnc5C)CC3)NC2=C(NC(=O)/C(C)=C\C=C\[C@H](C)[C@H](O)[C@@H](C)[C@@H](O)[C@@H](C)[C@H](OC(C)=O)[C@@H]1C)C4=O [Compound I, 4-Deoxy-3,4-[2-spiro-[1-[2-(2-methyl-5-nitro-imidazol-1-yl)ethyl]-piperidin-4-yl]]-(1H)-imidazo-(2,5-dihydro)rifamycin]",UBT results Negative,[1],18 (90.0) n(%)
same,UBT results Positive,[1],1 (5.0) n(%)
same,UBT results Negative,[2],18 (94.7) n(%)
same,UBT results Positive,[2],1 (5.3) n(%)
same,UBT results Negative,[3],18 (90.0) n(%)
same,UBT results Positive,[3],1 (5.0) n(%)
same,UBT results Negative,[4],18 (94.7) n(%)
same,UBT results Positive,[4],1 (5.3) n(%)
same,UBT results Negative,[5],18 (90.0) n(%)
same,UBT results Positive,[5],1 (5.0) n(%)
same,UBT results Negative,[6],18 (94.7) n(%)
same,UBT results Positive,[6],1 (5.3) n(%)
same,Eradication rate (mITT set) of Helicobacter pylori,"treatment group A: combination therapy of compound I, rabeprazole sodium and amoxicillin",94.7%
